Measured values: patent US20260317367A1, “SALTS INCLUDING CRYSTALLINE SALTS OF 25-HYDROXY-CHOLEST-5-EN-3-SULFATE AND METHODS FOR PREPARING SAME” (Durect Corporation, priority 2022, published 2026)
Counter-ions that a name gives are not always drawn. Like-named read-outs stand apart in the source and are kept apart here. Each block holds one compound with its values, some of them ahead of it.

How the values were obtained:
Format in all cases: physicochemical
[1] = Angle of repose of 25HC3S salts; conditions: for Flow Property per USP<1174> Powder Flow: classification by angle of repose
Description: Angle of repose is measured as follows. Powder is poured from a funnel onto a flat surface until a cone of powder is created. The angle of repose is calculated according to the following equation: […]
Table C1, from USP<1174> Powder Flow, describes the powder flow properties correlating to the angles of repose.
The lower the angle of repose, the more flowable is a material. Powder with an angle of repose between 25° to 30° will show excellent flow through a hopper, feed frame, die table and die bore smoothly. From 41° to greater than 66°, you may experience powder flow difficulties like rat-holing or bridging within the hopper.
The angle of repose was determined by pouring approximately 2 grams of a 25HC3S salt through a 7 mm inner diameter plastic tube into the center of a 21.14 mm diameter rubber O-ring, resulting in the formation of a powder cone of fixed diameter. The height of the cone was estimated with calipers.

[2] = Thermogravimetric analysis (TGA), weight loss
Description: (§1) Differential scanning calorimetry (DSC) is a thermoanalytical technique where the difference in the amount of heat required to increase the temperature of a sample and reference is measured as a function of temperature. Using this technique, phase transitions of a sample can be measured such as melting point. Decomposition can also be observed by DSC as can dehydration events. In the context of DSC measurements, there is also variability and the term “about” means ±1° C., and such variability is to be understood whether a DSC measurement is prefaced by “about” or not unless specified otherwise. Exemplary methods for collecting DSC data are set forth in Example 21. Thermogravimetric analysis, sometimes referred to as, thermal gravimetric analysis (TGA) is a thermal method of thermal analysis where the mass of a sample is measured as a function of time as the sample temperature changes. For example, when samples disclosed herein are heated and a loss in mass is measured prior to decomposition, this is likely indicative of the loss of water from the sample and may indicate that the sample being heated is a hydrate. Exemplary methods for collecting TGA are set forth in Example 23.
TG analysis was performed using a Mettler-Toledo TGA/DSC3 analyzer. Temperature and enthalpy adjustments were performed using indium, tin, and zinc, and then verified with indium. The balance was verified with calcium oxalate. The sample was placed in an open aluminum pan. The pan was hermetically sealed, the lid pierced, then inserted into the TG furnace. A weighed aluminum pan configured as the sample pan was placed on the reference platform. The furnace was heated under nitrogen. Each sample was heated from ambient temperature to 350° C. at 10° C./min. Although thermograms are plotted by reference temperature (x-axis), results are reported according to sample temperatures.

[3] = Final pH of the solubility sample solutions in aqueous media; conditions: for pH of the solubility sample, 0.9% Sodium Chloride: 0.9% sodium chloride (blank 5.8); for pH of the solubility sample, 5% Dextrose: 5% dextrose (blank 4.7); for pH of solubility sample solution in 5% dextrose: 5% dextrose (medium pH 4.7); for pH of the solubility sample, FaSSGF: FaSSGF (blank 1.5, 1.6); for pH of the solubility sample, FaSSIF: FaSSIF (blank 6.5, 6.5); for pH of the solubility sample, FeSSIF: FeSSIF (blank 4.9, 5.0); for pH of the solubility sample, Water: water (blank 6.3)
Description: 25HC3S salts were weighed in 8 mL or 4 mL glass vials with Teflon coated screw caps. Aliquots of each solvent were added to each sample and vortexed for about one minute until excess solid remained. Samples were placed on shaker at room temperature with 210 motion per minute shaking.
After one day, samples were pulled and checked if excess solid was present. About 1.5 mL aliquot of each sample was centrifuged at 12000 rpm for 12 to 15 minutes. […] Aliquots of the top clear solution of each centrifuged sample in MeOH, EtOH, IPA and ACN were diluted with diluent (water:MeOH 95:5) and assayed by HPLC. Samples of the salts in aqueous media were assayed by HPLC without dilution.
5.1 Solubility of 25HC3S Salts in Aqueous Media

[4] = Differential scanning calorimetry (DSC), thermal decomposition / endothermic transition; conditions: for Decomposition temperature (DSC): 10° C./min
Description: as §1
DSC was performed using a Mettler-Toledo DSC3+ differential scanning calorimeter. A tau lag adjustment is performed with indium, tin, and zinc. The temperature and enthalpy are adjusted with octane, phenyl salicylate, indium, tin and zinc. The adjustment is then verified with octane, phenyl salicylate, indium, tin, and zinc. The sample was placed into a hermetically sealed aluminum DSC pan, and the weight was accurately recorded. The pan was then inserted into the DSC cell. A weighed aluminum pan configured as the sample pan was placed on the reference side of the cell. The pan lid was pierced prior to sample analysis. Samples were analyzed from 30° C. to 350° C. or 30° C. to 250° C., both at 10° C./min.

[5] = Dynamic vapor sorption (DVS), hygroscopicity; conditions: DVS
Text: Dynamic vapor sorption (DVS) measures the uptake of a vapor (typically water) by a sample when exposed to a changing relative humidity. The loss of water can also be measured as relative humidity is decreased. Hygroscopic materials tend to absorb water more readily than non-hygroscopic. In some cases, hydrates absorb water to create higher-order hydrates (e.g., a monohydrate converting to a dihydrate when exposed to increasingly humid conditions). In some salts of the disclosure, moisture is retained upon exposure in a DVS experiment and little or no weight loss is observed upon heating from room temperature. In such experiments, the hygroscopic nature of the salt under study may indicate the formation of a hydrate from an anhydrate. […] Exemplary methods for collecting DVS data are set forth in Example 26.
Dynamic vapor sorption data was collected on a Surface Measurement System DVS Intrinsic instrument. The samples were not dried prior to analysis. Sorption and desorption data were collected over a range from 5% to 95% RH in 10% RH increments under a nitrogen purge. The equilibrium criteria used for the analyses were 0.001 dm/dt weight change in 5 minutes with a minimum step time of 30 minutes and maximum equilibration time of 180 minutes with a 3 minute data logging interval. Data were not corrected for the initial moisture content of the sample.

[6] = listed as 25HC3S hydroxyethylpyrrolidinium
[7] = listed as 25HC3S hydroxyethylammonium

Structure (SMILES): C[C@H](CCCC(C)(C)O)[C@H]1CC[C@H]2[C@@H]3CC=C4C[C@@H](OS(=O)(=O)O)CC[C@]4(C)[C@H]3CC[C@]12C [Salt #14]
- Angle of Repose [1]: 25.7 degrees
- Angle of Repose, Rounded Whole Number [1]: 26 degrees
- Weight loss by TGA, 100° C. to […] C. ([2]; 100° C. to […] C., partly decomposition): about 8.8%
- Weight loss by TGA to about 100° C. ([2]; to about 100° C.): about 1.5%
- pH of the solubility sample, 0.9% Sodium Chloride [3]: 8.4
- pH of the solubility sample, 5% Dextrose [3]: 7.5
- pH of solubility sample solution in 5% dextrose [3]: 7.5
- pH of the solubility sample, FaSSGF [3]: 1.6
- pH of the solubility sample, FaSSIF [3]: 6.5
- pH of the solubility sample, FeSSIF [3]: 5.0
- pH of the solubility sample, Water [3]: 8.8
- Relative humidity above which the salt is hygroscopic [5]: above 75 % relative humidity
- Decomposition temperature (DSC) [4]: about 186 °C
- First significant endothermic transition (DSC) ([4]; indicative of thermal degradation or solid-state transformation): ~186 °C

Structure (SMILES): CC(CCCC(C)(C)O)C1CCC2C3CC=C4CC(OS(=O)(=O)O)CCC4(C)C3CCC12C (centres unmarked) [Salt #5]
- Angle of Repose [1, 7]: 24.8 degrees
- Angle of Repose, Rounded Whole Number [1, 7]: 25 degrees
- Weight loss by TGA, ambient to 134° C. ([2]; ambient to 134° C.): about 2.7%
- pH of the solubility sample, 0.9% Sodium Chloride [3, 7]: 8.2
- pH of the solubility sample, 5% Dextrose [3, 7]: 7.0
- pH of the solubility sample, FaSSGF [3]: 1.6
- pH of the solubility sample, FaSSIF [3]: 6.6
- pH of the solubility sample, FeSSIF [3]: 5.0
- pH of the solubility sample, Water [3, 7]: 8.6
- Hygroscopicity (in words) ([5]; listed as crystalline 25HC3S hydroxyethylammonium): hygroscopic

Structure (SMILES): CC(CCCC(C)(C)O)C1CCC2C3CC=C4CC(OS(=O)(=O)O)CCC4(C)C3CCC12C (centres unmarked) [Salt #13]
- Flow Property per USP<1174> Powder Flow ([1]; listed as 25HC3S magnesium): Fair - aid not needed
- Angle of Repose ([1]; listed as 25HC3S magnesium): 37.7 degrees
- Angle of Repose, Rounded Whole Number ([1]; listed as 25HC3S magnesium): 38 degrees
- Weight loss by TGA up to 127° C. ([2]; up to 127° C.): about 1.5%
- pH of the solubility sample, 0.9% Sodium Chloride ([3]; listed as 25HC3S magnesium): 8.3
- pH of the solubility sample, 5% Dextrose ([3]; listed as 25HC3S magnesium): 7.1
- pH of the solubility sample, FaSSGF [3]: 1.6
- pH of the solubility sample, FaSSIF ([3]; listed as 25HC3S magnesium): 6.5
- pH of the solubility sample, FeSSIF ([3]; listed as 25HC3S magnesium): 4.9
- pH of the solubility sample, Water ([3]; listed as 25HC3S magnesium): 8.7
- Decomposition temperature (DSC) ([4]; listed as crystalline 25HC3S magnesium): about 139 °C

Structure (SMILES): CC(CCCC(C)(C)O)C1CCC2C3CC=C4CC(OS(=O)(=O)O)CCC4(C)C3CCC12C (centres unmarked) [Salt #7]
- Flow Property per USP<1174> Powder Flow ([1]; listed as 25HC3S meglumine): Fair - aid not needed
- Angle of Repose ([1]; listed as 25HC3S meglumine): 37.3 degrees
- Angle of Repose, Rounded Whole Number ([1]; listed as 25HC3S meglumine): 37 degrees
- Loss of moisture by TGA, starting with ambient ([2]; starting with ambient): about 3.2%
- pH of the solubility sample, 0.9% Sodium Chloride ([3]; listed as 25HC3S meglumine): 7.2
- pH of the solubility sample, 5% Dextrose ([3]; listed as 25HC3S meglumine): 7.2
- pH of the solubility sample, FaSSGF [3]: 1.6
- pH of the solubility sample, FaSSIF ([3]; listed as 25HC3S meglumine): 6.5
- pH of the solubility sample, FeSSIF [3]: 5.0
- pH of the solubility sample, Water ([3]; listed as 25HC3S meglumine): 8.5
- Water uptake, plateau above 35% RH ([5]; stable plateau above 35% relative humidity): about 3%

The remaining lines, values ahead:

- Flow Property per USP<1174> Powder Flow [1, 6]: Poor - must agitate,
- Angle of Repose [1, 6]: 53.8 degrees
- Angle of Repose, Rounded Whole Number [1, 6]: 54 degrees
- Weight loss by TGA up to 181° C. ([2]; up to 181° C.): about 0.1%
- pH of the solubility sample, 0.9% Sodium Chloride [3, 6]: 8.3
- pH of the solubility sample, 5% Dextrose [3, 6]: 6.4
- pH of solubility sample solution in 5% dextrose [3]: 6.4
- pH of the solubility sample, FaSSGF [3]: 1.6
- pH of the solubility sample, FaSSIF [3, 6]: 6.5
- pH of the solubility sample, FeSSIF [3, 6]: 4.9
- pH of the solubility sample, Water [3, 6]: 8.2
- Decomposition temperature (DSC) ([4]; listed as crystalline 25HC3S hydroxyethylpyrrolidinium): about 181 °C
Structure (SMILES): CC(CCCC(C)(C)O)C1CCC2C3CC=C4CC(OS(=O)(=O)O)CCC4(C)C3CCC12C (centres unmarked) [Salt #6]

- Flow Property per USP<1174> Powder Flow ([1]; listed as 25HC3S calcium): Passable - may hang up
- Angle of Repose ([1]; listed as 25HC3S calcium): 42.6 degrees
- Angle of Repose, Rounded Whole Number ([1]; listed as 25HC3S calcium): 43 degrees
- Weight loss by TGA, about 112° C. to about 130° C. ([2]; about 112° C. to about 130° C.): 3.1%
- Weight loss by TGA, room temperature to about 93° C. ([2]; room temperature to about 93° C.): about 0.9%
- pH of the solubility sample, 0.9% Sodium Chloride ([3]; listed as 25HC3S calcium): 8.5
- pH of solubility sample solution in 0.9% sodium chloride ([3]; 0.9% sodium chloride (medium pH 5.8)): 8.5
- pH of the solubility sample, 5% Dextrose ([3]; listed as 25HC3S calcium): 7.2
- pH of the solubility sample, FaSSGF [3]: 1.6
- pH of the solubility sample, FaSSIF ([3]; listed as 25HC3S calcium): 6.5
- pH of the solubility sample, FeSSIF [3]: 5.0
- pH of the solubility sample, Water ([3]; listed as 25HC3S calcium): 8.8
- Decomposition temperature (DSC) ([4]; listed as crystalline 25HC3S calcium): about 130 °C
Structure (SMILES): CC(CCCC(C)(C)O)C1CCC2C3CC=C4CC(OS(=O)(=O)O)CCC4(C)C3CCC12C (centres unmarked) [Salt #2]
